“Also recorded” adds a separate entry of the source.
Assays:
zebrafish embryos = experiment: Phenotype of zebrafish embryos after mll depletion (DIC microscopy of live embryos); format: in vivo
Experimental: (§1) A detailed characterization of the role of wild-type mll in the development of the zebrafish hematopoietic system was also performed. The morpholino knockdown strategy (Paffett-Lugassy et al. (2005) Methods Mol. Med., 105:171-98) was employed to characterize the phenotype of loss of mll and determine whether zebrafish mll depletion is associated with a phenotype resembling that in mammals. […] The construct was obtained from Gene Tools, LLC (Philomath, Oreg.). Target mRNA sequence was 5′-[…]gtaaacaaattctctaaattattgt-3′ (SEQ ID NO: 38; Exon 2 is capitalized; intron 2 is lower case; underline indicates 25-base sequence encompassed by morpholino). The MO E2I2 sequence was 5′-tagagaatttgtttacCTATTGACG-3′ (SEQ ID NO: 39). The normal transcript splicing is shown by the grey lines in FIG. 11A. The aberrant splicing of exon 1 to exon 3 is shown by the black lines in FIG. 11A and the thick black line in FIG. 11A indicates a second form of aberrant splicing due to failure to splice out intron 2. A 2 mM (16 ng/nl) MO E2I2 stock solution was prepared in dH2O and diluted in Danieau Solution to the desired concentration.
Wild type male and female adults were bred, fertilized eggs collected, and 100 embryos at the 1-2 cell stage were injected with 16 ng of MO E2I2. Control uninjected embryos (n=100) and injected embryos were raised in petri dishes in E3 embryo medium (Paffett-Lugassy et al. (2005) Methods Mol. Med., 105:171-98) to the desired age. PTU (1-phenyl-2-thiourea) was applied at 24 hpf as described (Herbomel et al. (2005) Methods Mol. Med., 105:199-214) to inhibit melanin synthesis. To harvest embryos for RNA, 20 embryos were collected in 1.5 ml eppendorf tubes, E3/PTU was removed, embryos were anesthetized with tricaine, tricaine was removed, 100% methanol was added and tubes were placed at −20° C. RNA was prepared using RNeasy (Qiagen) and RT-PCR was performed using SuperScript III One Step kit (Invitrogen) with sense and antisense primers 5′-[…]-3′ (SEQ ID NO: 40) and 5′-[…]-3′ (SEQ ID NO: 41). Knockdown of properly spliced transcript and production of two aberrant transcripts shown in the schematics of FIG. 11B was confirmed by sequencing the products.
DIC images of representative live embryos were taken using Leica DMRBE microscope with 4× objective and captured using Image Pro. […] By 48 hpf, erythroid cells are seen in heart/ventral anterior yolk sac of control (filled black arrow in FIG. 11C). In contrast, erythroid cells are barely visible in morphant (unfilled black arrow), and morphant has smaller eyes (arrow) and persistent hindbrain abnormality (arrow) (FIG. 11C).

[1] = system: zebrafish mll mRNA (exon 2-intron 2 splice junction); experiment: RT-PCR of zebrafish mll transcript splicing after morpholino knockdown; format: in vivo; conditions: embryos injected at 1-2 cell stage with 16 ng, products sequenced
Experimental: as §1
Wild type male and female adults were bred, fertilized eggs collected, and 100 embryos at the 1-2 cell stage were injected with 16 ng of MO E2I2. […]

[2] = 48 hpf, 16 ng injected, vs un-injected control embryos

## 5′-tagagaatttgtttacCTATTGACG-3′ (antisense TAGAGAATTTGTTTACCTATTGACG; all phosphorodiamidate morpholino (PMO)) [MO E2I2]
Zebrafish embryos; 28 hpf, 16 ng injected, vs un-injected control embryos
  morphant phenotype by 28 hpf: aberrant protrusion at the tip of the head and enlarged hindbrain ventricle
Zebrafish embryos; [2]
  erythroid cells in the heart and at the ventral yolk sac by 48 hpf: substantially less erythroid cells
  other morphant features (eyes, hindbrain): smaller eyes and a prominent hindbrain abnormality
Zebrafish embryos; embryos injected with 16 ng at 1-2 cell stage
  viability of morphant embryos: viable
Zebrafish embryos; of the 100 embryos injected with 16 ng at 1-2 cell stage
  embryos exhibiting a phenotype that included hematopoietic and neuronal defects, small size, and delayed development: Approximately 60%
[1]
  effect on mll transcript splicing: effectively disrupted; also recorded: inhibited proper splicing and resulted in production of two different aberrantly spliced mll mRNAs and reduction of the normal transcript

From patent US20090055940A1, “ZEBRAFISH MODEL OF MLL LEUKEMOGENESIS” (priority 2006, published 2009)
